Experimental data taken from US20190142993A1, “ULTRA-THIN, HIGH STRENGTH, DRUG-LOADED SUTURES AND COATINGS THEREOF” (The Johns Hopkins University, priority 2016, published 2019).

Test system: corneas of Sprague-Dawley rats
Settings: rat, in vivo
Experimental: For assessment of in vivo biocompatibility, animals were cared for and experiments conducted in accordance with protocols approved by the Animal Care and Use Committee of the Johns Hopkins University. Protocols are also in accordance with the ARVO Statement for the Use of Animals in Ophthalmic and Vision Research. […] Prior to implantation, rats were intraperitoneally anesthetized with a solution of Ketamine:Xylazine (75:5 mg/kg, Sigma Aldrich) and a drop of 0.5% proparacaine hydrochloride ophthalmic solution (Bausch & Lomb Inc., Tampa, Fla.) was applied to the cornea. Following implantation, the rats were evaluated for signs of infection every day for seven days. The rats were then euthanized and eyes enucleated, fixed in formalin (Sigma Aldrich) for 24 h, embedded in paraffin, cross sectioned, and stained with hematoxylin and eosin for histological evaluation.

nylon was tested, and the “tissue reaction (histological analysis)” value was “no obvious signs of neovascularization or inflammation”.
